Results taken from patent US4582821A, “Inhibition of cyclic nucleotide independent protein kinases” (E. I. Du Pont de Nemours and Company, priority 1983, dated 1986).
Peptide text beside a SMILES is read from it. * marks the point of attachment. Cbz = O=C(OCc1ccccc1)*; CH2Cl = ClC*

How the values were obtained:
[1] = system: A-431 plasma membrane extracts (EGF-mediated protein phosphorylation); test: Protein phosphorylation in solubilized A-431 plasma membrane extracts, with or without EGF; assay type: biochemical, human; conditions: 477 nmol/mg protein; for EGF Added (pmol 32P incorporated/min/mg protein): control 96.2; for No EGF Added (pmol 32P incorporated/min/mg protein): control 21.6
Procedure: The capacity of certain peptide halomethyl ketones to inhibit protein phosphorylation is illustrated by Examples 1-8, below, in which solubilized plasma membranes prepared from A-431 human epidermoid carcinoma cells were incubated with [γ-^32 P] ATP in the presence of EGF.
A-431 human epidermoid carcinoma cells were grown in Dulbecco's modified Eagle's medium containing 5% fetal calf serum. Plasma membranes were isolated by a method substantially similar to that described by Thom et al., Biochem J. 168:187 (1977), and kept at -70°. Solubilization of plasma membranes was performed substantially as described by Cohen et al., J. Biol. Chem. 255:4834 (1980). In this procedure, 7.5 mg/mL protein was solubilized with 5% Triton X-100 (octylphenol), 10% glycerol, and 20 mM Hepes buffer (N-2-hydroxyethylpiperazine-N^1 -2-ethanesulfonic acid), pH 7.4. This mixture was incubated for 20 minutes at about 23°, followed by centrifugation at 100,000 xg for 60 minutes.
(§1) Protein phosphorylation assays were conducted substantially as described by Carpenter et al., J. Biol. Chem. 254:4884 (1979). Each assay mixture contained, in a final volume of 70 μL: 20 mM Hepes, pH 7.4, 0.01% bovine serum albumin (BSA), 15-150 μg protein in Triton extract, 100 ng EGF, 1 mM MnCl2 and 10-20 μM [γ-^32 P] ATP (2-4 μCi). Peptide halomethyl ketones were added as solutions in ethanol; an equivalent volume of ethanol was added to controls. Assay mixtures were incubated at about 23° for ten minutes, with or without added EGF. Mixtures were then held at 0° for ten minutes before initiation of phosphorylation by addition of 15 μM γ-^32 P) ATP (2 μCi). Reactions were terminated after 3 minutes at 0° by applying an aliquot of the assay mixture to a Whatman 3MM filter paper (2×2 cm), which was then suspended in ice-cold 10% trichloroacetic acid containing 10 mM pyrophosphate. This suspension was gently shaken for a period of 1 hour, during which the trichloroacetic acid/pyrophosphate mixture was changed three times. Finally, the filter papers were dried and radioactivity measured by scintillation counting.

A-431 cell EGF receptor = molecular target: T1, A-431 cell EGF receptor (Homo sapiens, UniProt P00533); test: Protein phosphorylation of A-431 cell membrane EGF receptors (intact membranes, EGF present); assay type: biochemical; conditions: 600 nmoles/mg protein, intact A-431 membranes
T1 construct: intact A-431 cell membranes were employed, rather than solubilized extracts; endogenous in cells; host or cells: A-431 human epidermoid carcinoma cells (plasma membranes)
Procedure: as §1
Assays were conducted substantially as described above, except intact A-431 cell membranes were employed, rather than solubilized extracts, and assay mixtures contained 1 mM ouabain. In these Examples, reactions were permitted to proceed for 6 minutes. This technique is substantially similar to that disclosed by Navarro et al., Biochemistry, 21:6138 (1982).

[2] = system: lymphoma cell line MOLT-4; test: Tumor cell line growth inhibition, MOLT-4; assay type: cell-based
Procedure: (§2) In this series of experiments, the tumor cell growth inhibitory capacity of various peptide halomethyl ketones was tested against lymphoma cell lines YAC-1 and MOLT-4, and against an erythroleukemia cell line, K-562. The lymphoma cell line YAC-1 is described by Kiessling, et al., Eur. J. Immunol. 5:112 (1975), and MOLT-4 is described by Minowada, et al., J. Natl. Cancer Inst. 49:891 (1972) and Nilsson, et al., Int. J. Cancer 15:321 (1975). The erythroleukemia cell line K-562 is described by Lozzio, et al., Leuk. Res. 3:363 (1979). In these experiments, cells were grown on standard media as 10 mL suspension cultures. Initial cell density was 10^5 cells/mL. At day 0, test compounds were introduced in ethanol; control cultures received an equal volume of ethanol. Cells were counted at the times indicated.

[3] = system: erythroleukemia cell line K-562; test: Tumor cell line growth inhibition, K-562; assay type: cell-based
Procedure: as §2

lymphoma cell line YAC-1 = test: Tumor cell line growth inhibition, YAC-1; assay type: cell-based
Procedure: as §2

T1 sequence (P00533 25-1210): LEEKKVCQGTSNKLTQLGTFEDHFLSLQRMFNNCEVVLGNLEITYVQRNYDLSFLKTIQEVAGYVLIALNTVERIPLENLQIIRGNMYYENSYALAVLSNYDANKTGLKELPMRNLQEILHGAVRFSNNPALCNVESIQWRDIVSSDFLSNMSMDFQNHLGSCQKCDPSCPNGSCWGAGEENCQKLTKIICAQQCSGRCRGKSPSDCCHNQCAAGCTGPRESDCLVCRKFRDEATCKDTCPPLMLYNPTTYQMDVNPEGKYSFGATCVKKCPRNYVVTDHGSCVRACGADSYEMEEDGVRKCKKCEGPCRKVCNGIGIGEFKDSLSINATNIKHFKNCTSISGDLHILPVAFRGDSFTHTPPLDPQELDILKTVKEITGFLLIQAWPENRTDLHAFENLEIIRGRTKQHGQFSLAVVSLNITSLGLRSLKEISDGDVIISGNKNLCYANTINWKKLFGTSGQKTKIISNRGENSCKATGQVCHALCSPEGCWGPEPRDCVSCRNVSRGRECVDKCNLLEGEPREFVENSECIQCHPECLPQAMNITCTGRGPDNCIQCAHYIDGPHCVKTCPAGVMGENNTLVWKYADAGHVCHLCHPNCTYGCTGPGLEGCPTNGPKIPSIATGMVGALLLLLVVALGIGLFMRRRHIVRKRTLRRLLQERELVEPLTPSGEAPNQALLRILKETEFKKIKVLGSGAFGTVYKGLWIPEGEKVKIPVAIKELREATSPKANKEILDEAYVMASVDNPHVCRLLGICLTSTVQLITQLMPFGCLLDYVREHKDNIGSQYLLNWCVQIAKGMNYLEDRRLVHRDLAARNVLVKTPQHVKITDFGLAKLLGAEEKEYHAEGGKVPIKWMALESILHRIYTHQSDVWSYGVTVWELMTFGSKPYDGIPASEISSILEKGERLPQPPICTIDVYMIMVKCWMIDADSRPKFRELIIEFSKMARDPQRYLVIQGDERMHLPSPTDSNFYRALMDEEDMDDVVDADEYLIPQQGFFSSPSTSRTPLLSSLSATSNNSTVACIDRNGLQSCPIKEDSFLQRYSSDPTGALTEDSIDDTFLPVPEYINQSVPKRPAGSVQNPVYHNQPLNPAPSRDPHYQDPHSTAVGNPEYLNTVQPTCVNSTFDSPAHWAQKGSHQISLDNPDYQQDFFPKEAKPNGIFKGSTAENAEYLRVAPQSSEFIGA

Row | % inhibition (A-431 cell EGF receptor) [%] | Structure (SMILES) | % Growth Relative to Control Cultures ([2]; 0.4 μg/mL, day 1) [%] | % Growth Relative to Control Cultures ([2]; 0.4 μg/mL, day 2) [%] | % Growth Relative to Control Cultures ([2]; 2.0 μg/mL, day 1) [%] | % Growth Relative to Control Cultures ([2]; 2.0 μg/mL, day 2) [%] | % Growth Relative to Control Cultures ([2]; 2.0 μg/mL, day 3) [%] | % Growth Relative to Control Cultures ([2]; 2.0 μg/mL, day 4) [%] | % Growth Relative to Control Cultures ([2]; 10. μg/mL, day 2) [%] | % Growth Relative to Control Cultures ([2]; 10. μg/mL, day 3) [%] | % Growth Relative to Control Cultures ([2]; 10. μg/mL, day 4) [%] | % Growth Relative to Control Cultures ([2]; 10. μg/mL, day 7) [%] | % Growth Relative to Control Cultures ([3]; 2.0 μg/mL, day 1) [%] | % Growth Relative to Control Cultures ([3]; 2.0 μg/mL, day 2) [%] | % Growth Relative to Control Cultures ([3]; 2.0 μg/mL, day 3) [%] | % Growth Relative to Control Cultures ([3]; 2.0 μg/mL, day 4) [%] | % Growth Relative to Control Cultures ([3]; 10. μg/mL, day 1) [%] | % Growth Relative to Control Cultures ([3]; 10. μg/mL, day 2) [%] | % Growth Relative to Control Cultures ([3]; 10. μg/mL, day 3) [%] | % Growth Relative to Control Cultures ([3]; 10. μg/mL, day 4) [%] | % Growth Relative to Control Cultures ([3]; 10. μg/mL, day 7) [%] | further results
1 | 7 | CC(C)C[C@H](NC(=O)OC(C)(C)C)C(=O)CCl [Boc-LeuCH2 Cl] | 73 | 86 | 47 | 28 | 10 | 11 | 38 | 3 | 3 | 4 | 17 | 31 | 8 | 15 | 8 | 17 | 3 | 6 | 3 | % inhibition, EGF Added [1]: 28%; EGF Added (pmol 32P incorporated/min/mg protein) [1]: 69.0 pmol^32 P incorporated/min/mg; % inhibition, No EGF Added [1]: 48%; No EGF Added (pmol 32P incorporated/min/mg protein) [1]: 11.3 pmol^32 P incorporated/min/mg; % Growth Relative to Control Cultures ([2]; 0.4 μg/mL, day 3): 73%; % Growth Relative to Control Cultures ([2]; 0.4 μg/mL, day 7): 86%; % Growth Relative to Control Cultures ([2]; 2.0 μg/mL, day 7): 63%; % Growth Relative to Control Cultures ([3]; 0.4 μg/mL, day 1): 47%; % Growth Relative to Control Cultures ([3]; 0.4 μg/mL, day 3): 53%; % Growth Relative to Control Cultures ([3]; 2.0 μg/mL, day 7): 37%
2 | 34 | CC(C)(C)OC(=O)N[C@@H](Cc1ccc(O)cc1)C(=O)CCl [Boc-TyrCH2 Cl] | 80 | – | 56 | 31 | 17 | 16 | 19 | 8 | 3 | 0 | 81 | 23 | 15 | 19 | 64 | 7 | 2 | 2 | 0 | % inhibition, EGF Added [1]: 45%; EGF Added (pmol 32P incorporated/min/mg protein) [1]: 53.0 pmol^32 P incorporated/min/mg; % inhibition, No EGF Added [1]: 64%; No EGF Added (pmol 32P incorporated/min/mg protein) [1]: 7.8 pmol^32 P incorporated/min/mg; % Growth Relative to Control Cultures ([2]; 0.4 μg/mL, day 3): 85%; % Growth Relative to Control Cultures ([2]; 0.4 μg/mL, day 4): 69%; % Growth Relative to Control Cultures ([2]; 2.0 μg/mL, day 7): 31%; % Growth Relative to Control Cultures ([2]; 10. μg/mL, day 1): 39%; % Growth Relative to Control Cultures ([3]; 2.0 μg/mL, day 7): 44%
3 | 54 | CC(C)C[C@H](NC(=O)[C@H](CO)NC(=O)CNC(=O)[C@H](Cc1ccccc1)NC(=O)OCc1ccccc1)C(=O)CCl [Z--Phe-Gly-Ser-LeuCH2 Cl, Z-Phe-Gly-Ser-LeuCH2 Cl] (Cbz-FGSL-CH2Cl) | 77 | 40 | 42 | 27 | 87 | 74 | 17 | 76 | 29 | 49 | 66 | 13 | 38 | 40 | – | 14 | 17 | 20 | 65 | % Growth Relative to Control Cultures (lymphoma cell line YAC-1; 0.4 μg/mL, day 2): 63%; % Growth Relative to Control Cultures (lymphoma cell line YAC-1; 0.4 μg/mL, day 3): 68%; % Growth Relative to Control Cultures (lymphoma cell line YAC-1; 0.4 μg/mL, day 4): 74%; % Growth Relative to Control Cultures (lymphoma cell line YAC-1; 0.4 μg/mL, day 7): 61%; % Growth Relative to Control Cultures (lymphoma cell line YAC-1; 2.0 μg/mL, day 2): 80%; % Growth Relative to Control Cultures (lymphoma cell line YAC-1; 2.0 μg/mL, day 3): 60%; % Growth Relative to Control Cultures (lymphoma cell line YAC-1; 2.0 μg/mL, day 4): 66%; % Growth Relative to Control Cultures (lymphoma cell line YAC-1; 2.0 μg/mL, day 7): 75%; % Growth Relative to Control Cultures (lymphoma cell line YAC-1; 10. μg/mL, day 1): 62%; % Growth Relative to Control Cultures (lymphoma cell line YAC-1; 10. μg/mL, day 2): 40%; % Growth Relative to Control Cultures (lymphoma cell line YAC-1; 10. μg/mL, day 4): 40%; % Growth Relative to Control Cultures (lymphoma cell line YAC-1; 10. μg/mL, day 7): 64%; % Growth Relative to Control Cultures ([2]; 10. μg/mL, day 1): 38%; % Growth Relative to Control Cultures ([3]; 0.4 μg/mL, day 2): 28%; % Growth Relative to Control Cultures ([3]; 0.4 μg/mL, day 3): 27%; % Growth Relative to Control Cultures ([3]; 0.4 μg/mL, day 4): 49%; % Growth Relative to Control Cultures ([3]; 0.4 μg/mL, day 7): 81%
4 | 44 | CC(C)C[C@H](NC(=O)[C@H](C)NC(=O)[C@H](CO)NC(=O)[C@H](Cc1ccccc1)NC(=O)OCc1ccccc1)C(=O)CCl [Z--Phe-Ser-Ala-LeuCH2 Cl, Z-Phe-Ser-Ala-LeuCH2 Cl] (Cbz-FSAL-CH2Cl) | – | 80 | – | 85 | – | – | 16 | 4 | 2 | 11 | – | 72 | – | – | 44 | 4 | 2 | 4 | 7 | % Growth Relative to Control Cultures (lymphoma cell line YAC-1; 0.4 μg/mL, day 1): 58%; % Growth Relative to Control Cultures (lymphoma cell line YAC-1; 0.4 μg/mL, day 2): 49%; % Growth Relative to Control Cultures (lymphoma cell line YAC-1; 2.0 μg/mL, day 1): 53%; % Growth Relative to Control Cultures (lymphoma cell line YAC-1; 2.0 μg/mL, day 2): 53%; % Growth Relative to Control Cultures (lymphoma cell line YAC-1; 2.0 μg/mL, day 7): 76%; % Growth Relative to Control Cultures (lymphoma cell line YAC-1; 10. μg/mL, day 1): 63%; % Growth Relative to Control Cultures (lymphoma cell line YAC-1; 10. μg/mL, day 2): 21%; % Growth Relative to Control Cultures (lymphoma cell line YAC-1; 10. μg/mL, day 3): 16%; % Growth Relative to Control Cultures (lymphoma cell line YAC-1; 10. μg/mL, day 4): 16%; % Growth Relative to Control Cultures (lymphoma cell line YAC-1; 10. μg/mL, day 7): 17%; % Growth Relative to Control Cultures ([2]; 10. μg/mL, day 1): 64%; % Growth Relative to Control Cultures ([3]; 0.4 μg/mL, day 1): 82%; % Growth Relative to Control Cultures ([3]; 0.4 μg/mL, day 2): 66%
